Changes are numbered by the printed parent chain.
Assays:
Test in all cases: Fluo-4 calcium assay, HEK293T + Galpha16gust44
Format in all cases: cell-based
[1] = target: T1, hTAS2R16 (ssr3-hTAS2R16) (Homo sapiens, UniProt Q9NYV7, H181T)
T1 sequence (Q9NYV7 1-291 H181T): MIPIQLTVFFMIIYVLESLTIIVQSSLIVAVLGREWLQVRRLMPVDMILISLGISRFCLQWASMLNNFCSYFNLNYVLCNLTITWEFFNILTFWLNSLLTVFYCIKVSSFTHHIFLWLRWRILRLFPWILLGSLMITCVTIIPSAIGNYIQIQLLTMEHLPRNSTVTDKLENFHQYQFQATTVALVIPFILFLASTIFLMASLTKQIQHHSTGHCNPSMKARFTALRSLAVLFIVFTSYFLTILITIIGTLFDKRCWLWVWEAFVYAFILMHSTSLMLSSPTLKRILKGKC

[2] = target: T2, hTAS2R16 (ssr3-hTAS2R16) (Homo sapiens, UniProt Q9NYV7, F93L)
T2 sequence (Q9NYV7 1-291 F93L): T1 sequence (Q9NYV7 1-291 H181T) with F93L, T181H

[3] = target: T3, hTAS2R16 (ssr3-hTAS2R16) (Homo sapiens, UniProt Q9NYV7, W94F)
T3 sequence (Q9NYV7 1-291 W94F): T1 sequence (Q9NYV7 1-291 H181T) with W94F, T181H

[4] = target: T4, hTAS2R16 (ssr3-hTAS2R16) (Homo sapiens, UniProt Q9NYV7, Q177A)
T4 sequence (Q9NYV7 1-291 Q177A): T1 sequence (Q9NYV7 1-291 H181T) with Q177A, T181H

[5] = target: T5, hTAS2R16 (ssr3-hTAS2R16) (Homo sapiens, UniProt Q9NYV7, Q177E)
T5 sequence (Q9NYV7 1-291 Q177E): T1 sequence (Q9NYV7 1-291 H181T) with Q177E, T181H

[6] = target: T6, hTAS2R16 (ssr3-hTAS2R16) (Homo sapiens, UniProt Q9NYV7, F240W)
T6 sequence (Q9NYV7 1-291 F240W): T1 sequence (Q9NYV7 1-291 H181T) with T181H, F240W

[7] = target: T7, hTAS2R16 (ssr3-hTAS2R16) (Homo sapiens, UniProt Q9NYV7, F93T)
T7 sequence (Q9NYV7 1-291 F93T): T1 sequence (Q9NYV7 1-291 H181T) with F93T, T181H

[8] = target: T8, hTAS2R16 (ssr3-hTAS2R16) (Homo sapiens, UniProt Q9NYV7, F240L)
T8 sequence (Q9NYV7 1-291 F240L): T1 sequence (Q9NYV7 1-291 H181T) with T181H, F240L

`OCc1ccccc1O[C@@H]1O[C@H](CO)[C@@H](O)[C@H](O)[C@H]1O` [salicin] gave an EC50 [1] of 1840 µM, an EC50 [2] of 4150 µM and an EC50 [3] of 9680 µM. For the same compound, the EC50 [4] was 550 µM, the EC50 [5] was 220 µM and the EC50 [6] was 2050 µM. The EC50 [7] was 12000 µM and the EC50 [8] was over 30000 µM.

Reference: article PMC2934701 (The Journal of Biological Chemistry, 2010)
